# Results published in US11946059B2, “In vivo generation of water-soluble cannabinoids in plant cell suspension cultures” (Trait Biosciences Inc., priority 2017, dated 2024).
# Test: Cannabinoid stability in solution (time course incubation)
# Assay type: physicochemical
# Settings: room temperature, shielded from light
# Experimental: Rather, levels increased slightly in all treatments. The absence of any residual UGTs were cross-check and confirmed as the samples were purified by SPE, washed and eluted in 30% and 65%-100% ethanol, respectively.
# Materials and Methods Example 19: Cannabinoid Stability in Solution.
# The present inventors generated a stock solution of the CBD/CBDA+glycosides mixture in water which was further diluted 10× in all treatment solutions. A 10 mL starting volume was used for all treatments, and all treatments were prepared in triplicate. […] Each sample was incubated at room temperature. Samples were stored in 15 mL polypropylene centrifuge tubes. All samples were shielded from light—tubes were wrapped in aluminum foil. Each sample was prepared in triplicate in the following buffers: water only; pH=3; pH=4; pH=7; pH=8; water only+10 mM ascorbic acid; pH=3+10 mM ascorbic acid; pH=4+10 mM ascorbic acid; pH=7+10 mM ascorbic acid; and pH=8+10 mM ascorbic acid.
# [1] = Water + AA (10 mM ascorbic acid)
# [2] = pH = 3 + AA (10 mM ascorbic acid)
# [3] = pH = 4 + AA (10 mM ascorbic acid)
# [4] = pH = 7 + AA (10 mM ascorbic acid)
# [5] = pH = 8 + AA (10 mM ascorbic acid)
smiles,measurement,setting,value
C=C(C)C1CCC(C)=CC1c1c(O)cc(CCCCC)cc1OC1OC(CO)C(O)C(O)C1O (centres unmarked) [1X CBD Gly],Day 1 concentration in solution,[1],7.99 ± 4.17 µg/mL
same,Day 1 concentration in solution,Water,1.20 ± 21.68 µg/mL
same,Day 1 concentration in solution,[2],9.78 ± 5.27 µg/mL
same,Day 1 concentration in solution,pH = 3,8.83 ± 1.80 µg/mL
same,Day 1 concentration in solution,[3],5.82 ± 3.11 µg/mL
same,Day 1 concentration in solution,pH = 4,below LOQ
same,Day 1 concentration in solution,[4],5.73 ± 4.70 µg/mL
same,Day 1 concentration in solution,pH = 7,15.45 ± 0.07 µg/mL
same,Day 1 concentration in solution,[5],1.04 ± 4.15 µg/mL
same,Day 1 concentration in solution,pH = 8,12.86 ± 4.15 µg/mL
same,Day 4 concentration in solution,[1],17.55 ± 5.99 µg/mL
same,Day 4 concentration in solution,Water,15.11 ± 10.77 µg/mL
same,Day 4 concentration in solution,[2],17.99 ± 4.60 µg/mL
same,Day 4 concentration in solution,pH = 3,18.94 ± 4.88 µg/mL
same,Day 4 concentration in solution,[3],17.02 ± 5.68 µg/mL
same,Day 4 concentration in solution,pH = 4,29.03 ± 8.17 µg/mL
same,Day 4 concentration in solution,[4],19.96 ± 9.83 µg/mL
same,Day 4 concentration in solution,pH = 7,19.64 ± 3.44 µg/mL
same,Day 4 concentration in solution,[5],15.86 ± 2.63 µg/mL
same,Day 4 concentration in solution,pH = 8,26.99 ± 15.29 µg/mL
same,Day 5 concentration in solution,[1],19.70 ± 0.80 µg/mL
same,Day 5 concentration in solution,Water,14.60 ± 1.31 µg/mL
same,Day 5 concentration in solution,[2],19.29 ± 3.26 µg/mL
same,Day 5 concentration in solution,pH = 3,18.00 ± 0.59 µg/mL
same,Day 5 concentration in solution,[3],19.34 ± 1.90 µg/mL
same,Day 5 concentration in solution,pH = 4,18.26 ± 0.52 µg/mL
same,Day 5 concentration in solution,[4],19.05 ± 3.91 µg/mL
same,Day 5 concentration in solution,pH = 7,17.50 ± 1.63 µg/mL
same,Day 5 concentration in solution,[5],20.14 ± 1.73 µg/mL
same,Day 5 concentration in solution,pH = 8,19.73 ± 0.55 µg/mL
same,Day 6 concentration in solution,[1],34.98 ± 9.28 µg/mL
same,Day 6 concentration in solution,Water,8.56 ± 7.04 µg/mL
same,Day 6 concentration in solution,[2],27.67 ± 9.51 µg/mL
same,Day 6 concentration in solution,pH = 3,21.59 ± 7.97 µg/mL
same,Day 6 concentration in solution,[3],31.67 ± 4.29 µg/mL
same,Day 6 concentration in solution,pH = 4,32.87 ± 8.08 µg/mL
same,Day 6 concentration in solution,[4],30.43 ± 4.82 µg/mL
same,Day 6 concentration in solution,pH = 7,46.80 ± 10.12 µg/mL
same,Day 6 concentration in solution,[5],32.97 ± 1.31 µg/mL
same,Day 6 concentration in solution,pH = 8,44.10 ± 3.45 µg/mL
same,Day 7 concentration in solution,[1],24.99 ± 7.29 µg/mL
same,Day 7 concentration in solution,Water,23.89 ± 5.27 µg/mL
same,Day 7 concentration in solution,[2],19.38 ± 0.46 µg/mL
same,Day 7 concentration in solution,pH = 3,27.06 ± 4.05 µg/mL
same,Day 7 concentration in solution,[3],23.30 ± 3.95 µg/mL
same,Day 7 concentration in solution,pH = 4,26.96 ± 0.46 µg/mL
same,Day 7 concentration in solution,[4],39.57 ± 4.63 µg/mL
same,Day 7 concentration in solution,pH = 7,22.14 ± 6.83 µg/mL
same,Day 7 concentration in solution,[5],37.93 ± 2.89 µg/mL
same,Day 7 concentration in solution,pH = 8,32.42 ± 8.76 µg/mL
